The results in this text go back to ChEMBL document CHEMBL5465560, “Selectivity Literature for EUbOPEN Chemogenomic Library” (2024).

For test [1], the target named is Casein kinase I isoform gamma-1 (Homo sapiens) (UniProt Q9HCP0). Briefly: Selectivity interaction (Ambit KINOMEscan and KiNATiv profiling in Jurkat cells) EUB0000090b CSNK1G1. Type of test: cell-based. Particulars: at 1 µM.
Test [2] has as its target T1, Serine/threonine-protein kinase ULK2 (Homo sapiens) (UniProt Q8IYT8).
T1 sequence (whole entry): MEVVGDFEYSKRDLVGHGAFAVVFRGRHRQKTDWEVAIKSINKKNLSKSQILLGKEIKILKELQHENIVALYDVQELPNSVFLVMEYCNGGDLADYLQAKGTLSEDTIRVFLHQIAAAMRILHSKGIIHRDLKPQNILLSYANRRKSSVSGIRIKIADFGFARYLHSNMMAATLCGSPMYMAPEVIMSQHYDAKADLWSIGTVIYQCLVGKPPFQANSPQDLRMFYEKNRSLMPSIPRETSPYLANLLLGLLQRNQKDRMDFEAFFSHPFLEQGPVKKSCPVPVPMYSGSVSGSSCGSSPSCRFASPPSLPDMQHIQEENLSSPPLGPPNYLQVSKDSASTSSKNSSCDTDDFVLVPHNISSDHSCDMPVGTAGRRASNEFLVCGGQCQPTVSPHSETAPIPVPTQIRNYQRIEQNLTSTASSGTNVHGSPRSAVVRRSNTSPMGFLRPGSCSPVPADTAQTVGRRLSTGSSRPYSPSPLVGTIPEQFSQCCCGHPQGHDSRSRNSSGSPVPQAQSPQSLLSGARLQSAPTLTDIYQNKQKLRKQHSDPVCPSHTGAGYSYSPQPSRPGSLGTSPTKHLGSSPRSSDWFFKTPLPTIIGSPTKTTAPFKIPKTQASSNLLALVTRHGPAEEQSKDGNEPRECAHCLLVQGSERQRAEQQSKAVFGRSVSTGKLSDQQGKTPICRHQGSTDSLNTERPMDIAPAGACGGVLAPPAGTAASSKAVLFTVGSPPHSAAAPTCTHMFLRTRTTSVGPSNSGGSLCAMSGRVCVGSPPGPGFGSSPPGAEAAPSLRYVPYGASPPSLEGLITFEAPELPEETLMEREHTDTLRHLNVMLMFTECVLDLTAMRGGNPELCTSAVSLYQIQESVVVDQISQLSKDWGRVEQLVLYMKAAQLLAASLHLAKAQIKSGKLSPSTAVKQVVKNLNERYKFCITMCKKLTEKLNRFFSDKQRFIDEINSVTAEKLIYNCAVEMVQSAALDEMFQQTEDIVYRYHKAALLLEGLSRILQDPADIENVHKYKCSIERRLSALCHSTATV
Briefly: Selectivity interaction (Ambit KINOMEscan and KiNATiv profiling in Jurkat cells) EUB0000090b ULK2. It counts as cell-based. The conditions noted are these: at 1 µM.

Test [3] addresses Cyclin-dependent kinase-like 1 (Homo sapiens) (UniProt Q00532). Kind of test: Selectivity interaction (KinomeScan (DiscoverX)) EUB0001079a CDKL1. Particulars: at 1 µM.
Test [4] concerns the target Dual specificity protein kinase CLK2 (Homo sapiens, UniProt P49760). Briefly: Selectivity interaction (KinomeScan (DiscoverX)) EUB0001079a CLK2. The conditions noted are these: at 1 µM.
Test [5] has as its target T2, Inhibitor of nuclear factor kappa-B kinase subunit alpha (Homo sapiens) (UniProt O15111).
T2 sequence (whole entry): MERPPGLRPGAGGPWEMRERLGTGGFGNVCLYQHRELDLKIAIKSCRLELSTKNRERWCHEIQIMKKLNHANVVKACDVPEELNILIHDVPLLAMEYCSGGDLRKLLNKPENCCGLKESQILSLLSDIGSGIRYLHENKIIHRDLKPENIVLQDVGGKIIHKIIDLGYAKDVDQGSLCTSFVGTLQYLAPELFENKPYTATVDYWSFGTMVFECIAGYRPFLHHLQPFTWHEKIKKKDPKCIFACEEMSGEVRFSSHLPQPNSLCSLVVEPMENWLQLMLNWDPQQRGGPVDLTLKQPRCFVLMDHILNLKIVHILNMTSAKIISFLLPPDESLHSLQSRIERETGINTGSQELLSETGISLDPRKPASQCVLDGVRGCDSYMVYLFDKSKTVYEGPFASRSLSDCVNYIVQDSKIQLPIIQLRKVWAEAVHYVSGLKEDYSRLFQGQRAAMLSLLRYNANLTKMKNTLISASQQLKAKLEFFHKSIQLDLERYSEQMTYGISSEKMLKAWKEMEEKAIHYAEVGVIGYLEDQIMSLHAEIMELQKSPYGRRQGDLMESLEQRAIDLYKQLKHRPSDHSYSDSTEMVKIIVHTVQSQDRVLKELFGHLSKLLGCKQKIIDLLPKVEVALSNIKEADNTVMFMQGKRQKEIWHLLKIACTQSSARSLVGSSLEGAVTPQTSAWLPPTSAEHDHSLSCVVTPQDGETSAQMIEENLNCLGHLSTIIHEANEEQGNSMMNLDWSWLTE
Kind of test: Selectivity interaction (KinomeScan (DiscoverX)) EUB0001079a CHUK. The conditions noted are these: at 1 µM.

For test [6], the target named is Casein kinase I isoform gamma-3 (Homo sapiens) (UniProt Q9Y6M4). Briefly: Selectivity interaction (KinomeScan (DiscoverX)) EUB0000045b CSNK1G3.
Chain of Casein kinase I isoform gamma-3 (Homo sapiens) (Q9Y6M4 whole entry, looked up, canonical isoform): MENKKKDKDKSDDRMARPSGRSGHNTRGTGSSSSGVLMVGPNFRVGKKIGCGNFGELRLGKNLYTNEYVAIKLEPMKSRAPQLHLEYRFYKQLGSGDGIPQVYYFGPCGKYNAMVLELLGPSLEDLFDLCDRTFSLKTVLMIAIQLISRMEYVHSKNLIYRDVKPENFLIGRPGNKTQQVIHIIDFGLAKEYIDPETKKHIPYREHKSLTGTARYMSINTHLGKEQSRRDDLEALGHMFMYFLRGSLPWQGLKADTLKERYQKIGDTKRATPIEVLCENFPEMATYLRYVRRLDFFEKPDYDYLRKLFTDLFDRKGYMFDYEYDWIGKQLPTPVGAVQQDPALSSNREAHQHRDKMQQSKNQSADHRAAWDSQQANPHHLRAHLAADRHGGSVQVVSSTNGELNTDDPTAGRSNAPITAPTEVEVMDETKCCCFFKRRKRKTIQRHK
For test [7], the target named is T3, Serine/threonine-protein kinase Chk1 (Homo sapiens) (UniProt O14757).
T3 sequence (whole entry): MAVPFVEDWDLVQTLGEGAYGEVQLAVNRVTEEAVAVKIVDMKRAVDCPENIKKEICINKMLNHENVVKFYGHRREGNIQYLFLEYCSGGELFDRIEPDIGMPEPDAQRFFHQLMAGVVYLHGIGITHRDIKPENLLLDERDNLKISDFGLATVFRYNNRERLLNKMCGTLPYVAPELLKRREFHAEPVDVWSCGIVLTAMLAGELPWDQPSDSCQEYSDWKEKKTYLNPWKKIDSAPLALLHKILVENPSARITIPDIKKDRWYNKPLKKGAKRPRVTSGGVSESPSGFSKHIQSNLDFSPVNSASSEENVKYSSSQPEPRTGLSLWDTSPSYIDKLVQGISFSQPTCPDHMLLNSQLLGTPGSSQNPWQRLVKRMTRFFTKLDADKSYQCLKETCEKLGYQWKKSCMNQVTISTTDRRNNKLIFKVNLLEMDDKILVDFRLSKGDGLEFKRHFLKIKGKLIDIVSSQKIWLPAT
Briefly: Selectivity interaction (SelectScreen profiling (Invitrogen)) EUB0000607a CHEK1. The conditions noted are these: at 2 µM.

The target in test [8] is Cyclin-dependent kinase 18 (Homo sapiens) (UniProt Q07002). Briefly: Selectivity interaction (ActivX KiNativ screen (kinase selectivity in THP-1 cell lysates)) EUB0000639a CDK18. It counts as subcellular. The conditions noted are these: lysate, at 0.04 µM.
Chain of Cyclin-dependent kinase 18 (Homo sapiens) (Q07002 whole entry): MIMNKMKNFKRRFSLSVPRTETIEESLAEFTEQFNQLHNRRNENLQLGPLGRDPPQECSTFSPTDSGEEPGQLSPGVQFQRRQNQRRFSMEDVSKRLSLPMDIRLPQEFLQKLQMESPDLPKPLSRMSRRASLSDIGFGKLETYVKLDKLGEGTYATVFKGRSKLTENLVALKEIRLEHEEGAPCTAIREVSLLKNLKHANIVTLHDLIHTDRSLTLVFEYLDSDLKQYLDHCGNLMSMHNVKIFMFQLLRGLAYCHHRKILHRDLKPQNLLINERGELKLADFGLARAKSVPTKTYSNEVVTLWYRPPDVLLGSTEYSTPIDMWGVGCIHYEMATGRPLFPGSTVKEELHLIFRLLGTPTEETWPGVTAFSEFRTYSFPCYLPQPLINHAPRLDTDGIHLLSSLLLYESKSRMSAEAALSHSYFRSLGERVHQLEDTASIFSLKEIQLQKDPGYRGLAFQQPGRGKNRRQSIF

Each structure is given as a SMILES string.

Chain of Casein kinase I isoform gamma-1 (Homo sapiens) (Q9HCP0 whole entry, looked up, canonical isoform): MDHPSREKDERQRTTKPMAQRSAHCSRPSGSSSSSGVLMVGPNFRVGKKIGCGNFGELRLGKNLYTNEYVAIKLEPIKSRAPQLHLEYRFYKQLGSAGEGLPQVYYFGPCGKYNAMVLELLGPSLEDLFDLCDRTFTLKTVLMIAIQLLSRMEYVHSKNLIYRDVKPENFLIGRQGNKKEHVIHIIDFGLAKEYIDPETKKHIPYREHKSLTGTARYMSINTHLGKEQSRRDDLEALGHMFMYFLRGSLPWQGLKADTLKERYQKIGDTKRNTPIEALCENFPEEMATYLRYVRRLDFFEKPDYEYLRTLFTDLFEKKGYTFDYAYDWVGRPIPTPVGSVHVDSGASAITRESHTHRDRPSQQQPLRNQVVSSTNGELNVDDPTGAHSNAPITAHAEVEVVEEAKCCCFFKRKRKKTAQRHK
Chain of Dual specificity protein kinase CLK2 (P49760 whole entry, looked up): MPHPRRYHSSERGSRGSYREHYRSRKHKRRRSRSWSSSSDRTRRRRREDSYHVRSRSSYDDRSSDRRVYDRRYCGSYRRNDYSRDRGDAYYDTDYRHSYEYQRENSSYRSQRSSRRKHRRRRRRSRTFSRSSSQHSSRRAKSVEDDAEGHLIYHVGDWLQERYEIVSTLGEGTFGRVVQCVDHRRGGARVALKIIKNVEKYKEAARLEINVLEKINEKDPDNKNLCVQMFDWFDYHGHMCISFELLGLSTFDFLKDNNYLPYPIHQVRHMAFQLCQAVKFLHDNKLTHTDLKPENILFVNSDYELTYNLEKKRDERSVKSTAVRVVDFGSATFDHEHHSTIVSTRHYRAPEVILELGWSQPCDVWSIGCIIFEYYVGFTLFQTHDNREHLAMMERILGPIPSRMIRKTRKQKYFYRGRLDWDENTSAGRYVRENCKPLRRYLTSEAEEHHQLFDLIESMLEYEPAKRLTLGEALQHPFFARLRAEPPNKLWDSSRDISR
Chain of Cyclin-dependent kinase-like 1 (Homo sapiens) (Q00532 whole entry): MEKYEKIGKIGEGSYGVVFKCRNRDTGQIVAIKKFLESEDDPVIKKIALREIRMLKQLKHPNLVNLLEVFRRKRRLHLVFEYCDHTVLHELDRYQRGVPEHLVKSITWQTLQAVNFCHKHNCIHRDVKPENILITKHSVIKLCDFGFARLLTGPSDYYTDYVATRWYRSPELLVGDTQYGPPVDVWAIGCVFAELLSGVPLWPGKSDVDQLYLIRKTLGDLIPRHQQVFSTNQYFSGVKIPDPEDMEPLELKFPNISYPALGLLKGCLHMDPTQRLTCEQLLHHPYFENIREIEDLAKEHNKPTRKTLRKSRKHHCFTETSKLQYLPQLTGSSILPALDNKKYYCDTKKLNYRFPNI

For the compound `CN(C)C/C=C/C(=O)Nc1ccc(C(=O)N2CCCC(Nc3ncc(Cl)c(-c4c[nH]c5ccccc45)n3)C2)cc1` (centres undefined), the % of control turned out to be 94% in test [1] and 100% in test [2].

In the case of `Nc1cnc(N2CCc3cc(S(=O)(=O)Nc4c(F)cc(Cl)cc4F)cc(N4CCCC4=O)c32)nc1` [TP-020n], the % of control in test [3] amounted to 85%; in test [4], 100%; in test [5], 100%.

Turning to `C=CC(=O)Nc1cc(-n2c(=O)ccc3cnc4ccc(-c5ccc(NS(C)(=O)=O)cc5)cc4c32)ccc1C`, the % of control turned out to be 100% in test [6] (at 1 µM) and 84% in test [6] (at 10 µM).

With `CNC(=O)Nc1ccc(-c2nc(N3CC4CCC(C3)O4)c3cnn(C4CCC5(CC4)OCCO5)c3n2)cc1`, the % of inhibition in test [7] is 9%.

Compound `CC[C@@H]1[C@H](F)C(=O)N[C@@H]1COc1nccc2cc(C(N)=O)c(OC)cc12` [ZIMLOVISERTIB] came in with a % of inhibition in test [8] of 1.7%.
